Experimental data as given in patent publication US20080119513A1, “Sulfonamide Derivative Selectively Inhibiting Mmp-13” (priority 2004, published 2008).

Key:
Type in all cases: biochemical
MMP-13 = biological target: T1, MMP-13 (Homo sapiens, UniProt P45452); assay: Assay for inhibitory activities on MMPs (fluorogenic peptide substrate), MMP-13
T1 construct: catalytic domain (^104Tyr˜^267Gly) was amplified with RT-PCR; His-tag; enterokinase digestion-site
Method: In regard to MMP-13, mRNA was prepared from carcinoma cell SW1353 derived from human cartilage stimulate by IL-1 and TNF, and catalytic domain (^[…]) was amplified with RT-PCR. This was cloned in Escherichia coli expression vector […] inserted with His-tag sequence and enterokinase digestion-site, induced and expressed by IPTG (Isopropyl-β-D-thiogalactopyranoside) and expressed in an insoluble fraction. Isolation of MMP-13 from an insoluble fraction was carried out by dissolving in modifier (6 M urea) by a usual method and purification with metal chelate chromatography (Ni […] Sepharose). And then removing modifier (6 M urea) with dialyze and refolding of the enzyme spontaneously gave activated MMP-13. The enzymatic activity on MMPs was analyzed by the method described in “C. Graham Knight, Frances Willenbrock and Gillian Murphy: A novel coumarin-labelled peptide for sensitive continuous assays of the matrix metalloproteinases: FEBS LETT., 296, (1992), 263-266”. The substrate: MOCAc-[…] was purchased from Peptide Institute, Inc., Osaka, Japan. The measurement of the inhibitory activities (IC50) was carried out by the following four methods; (A) Reaction with substrate, enzyme (MMPs) and inhibitor (B) Reaction with substrate and inhibitor, without enzyme (C) Reaction with substrate and enzyme (MMPs), without inhibitor (D) Reaction with substrate only IC50 values were calculated by using the following formula and each fluorescence values of above four methods (A to D). % inhibition={1-(A-B)/(C-D)}×100 IC50 means the concentration required to inhibit 50% of the enzyme activity. The value of inhibitory activity against MMP-2, MMP-8, MMP-9, MMP-12, and MMP-13 measured by above mentioned methods are shown in Table 25 and 26.

MMP-12 = biological target: T2, MMP-12 (Homo sapiens, UniProt P39900); assay: Assay for inhibitory activities on MMPs (fluorogenic peptide substrate), MMP-12
T2 construct: In regard to MMP-12, catalytic domain (^100Phe˜^263Gly) was amplified with RT-PCR; His-tag; enterokinase digestion-site
Method: In regard to MMP-12, catalytic domain (^100Phe˜^263Gly) was amplified with RT-PCR from Human Placenta Total RNA. This was cloned in Escherichia coli expression vector pTrc99AHE inserted with His-tag sequence and enterokinase digestion-site, induced and expressed by IPTG (Isopropyl-β-D-thiogalactopyranoside) and expressed in an insoluble fraction. Isolation of MMP-12 from an insoluble fraction was carried out by dissolving in modifier (6 M urea) by a usual method and purification with metal chelate chromatography (Ni Chelateing Sepharose). And then removing modifier (6 M urea) with dialysis and refolding of the enzyme spontaneously gave activated MMP-12.
(§1) The enzymatic activity on MMPs was analyzed by the method described in “C. Graham Knight, Frances Willenbrock and Gillian Murphy: A novel coumarin-labelled peptide for sensitive continuous assays of the matrix metalloproteinases: FEBS LETT., 296, (1992), 263-266”. The substrate: MOCAc-Pro-Leu-Gly-Leu-A2Pr(DNP)-Ala-Arg-NH2 was purchased from Peptide Institute, Inc., Osaka, Japan. The measurement of the inhibitory activities (IC50) was carried out by the following four methods;
(§2) (A) Reaction with substrate, enzyme (MMPs) and inhibitor
(§3) (B) Reaction with substrate and inhibitor, without enzyme
(§4) (C) Reaction with substrate and enzyme (MMPs), without inhibitor
(§5) (D) Reaction with substrate only
(§6) IC50 values were calculated by using the following formula and each fluorescence values of above four methods (A to D).
(§7) % inhibition={1-(A−B)/(C−D)}×100
(§8) IC50 means the concentration required to inhibit 50% of the enzyme activity.
(§9) The value of inhibitory activity against MMP-2, MMP-8, MMP-9, MMP-12, and MMP-13 measured by above mentioned methods are shown in Table 25 and 26.

MMP-2 = biological target: T3, MMP-2 (Homo sapiens, UniProt P08253); assay: Assay for inhibitory activities on MMPs (fluorogenic peptide substrate), MMP-2
T3 sequence (P08253 110-660): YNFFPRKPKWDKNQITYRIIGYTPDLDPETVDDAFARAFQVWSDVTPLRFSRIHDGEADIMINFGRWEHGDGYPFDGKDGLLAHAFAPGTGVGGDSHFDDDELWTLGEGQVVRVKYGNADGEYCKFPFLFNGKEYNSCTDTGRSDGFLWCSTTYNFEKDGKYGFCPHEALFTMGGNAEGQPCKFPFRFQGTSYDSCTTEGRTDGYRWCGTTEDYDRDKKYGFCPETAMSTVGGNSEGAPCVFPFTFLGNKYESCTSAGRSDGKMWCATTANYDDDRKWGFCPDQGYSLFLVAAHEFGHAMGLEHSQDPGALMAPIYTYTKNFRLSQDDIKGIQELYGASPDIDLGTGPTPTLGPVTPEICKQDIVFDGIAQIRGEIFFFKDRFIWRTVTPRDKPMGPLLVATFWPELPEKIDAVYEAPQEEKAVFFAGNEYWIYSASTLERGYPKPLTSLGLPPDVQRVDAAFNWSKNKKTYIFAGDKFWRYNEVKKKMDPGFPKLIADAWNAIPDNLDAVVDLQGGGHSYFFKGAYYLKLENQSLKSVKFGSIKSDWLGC
Method: MMP-2 was purchased from Calbiochem-Novabiochem International, Inc.
as §1, §2, §3, §4, §5, §6, §7, §8, §9

MMP-8 = biological target: T4, MMP-8 (Homo sapiens, UniProt P22894); assay: Assay for inhibitory activities on MMPs (fluorogenic peptide substrate), MMP-8
T4 construct: In regard to MMP-8, catalytic domain (^99Phe˜^262Gly) was amplified with PCR; His-tag; enterokinase digestion-site
Excerpt: In regard to MMP-8, catalytic domain (^99Phe˜^262Gly) was amplified with PCR using commercial available Human Bone Marrow cDNA. This was cloned in Escherichia coli expression vector pTrc99AHE inserted with His-tag sequence and enterokinase digestion-site, induced and expressed by IPTG (Isopropyl-β-D-thiogalactopyranoside) and expressed in a insoluble fraction (Than F. Ho, M. Walid Qoronfleh, Robert C. Wahl, Trica A. Pulvino, Karen J. Vavra, Joe Falvo, Tracey M. Banks, Patricia G. Brake and Richard B. Ciccarelli: Gene expression, purification and characterization of recombinant human neutrophil collagenase. Gene 146, (1994) 297-301. It was prepared by the method in a slight modification). Isolation of MMP-8 from an insoluble fraction was carried out by dissolving in modifier (6 M urea) by a usual method and purification with metal chelate chromatography. And then removing modifier (6 M urea) with dialysis and refolding of the enzyme spontaneously gave activated MMP-8.
as §1, §2, §3, §4, §5, §6, §7, §8, §9

MMP-9 = MMP-9 (Homo sapiens, UniProt P14780); assay: Assay for inhibitory activities on MMPs (fluorogenic peptide substrate), MMP-9
Excerpt: MMP-9 was isolated and purified by the procedure of Y. Okada et al. (Yasunori Okada, Yukio Gonoji, Katsumi Naka, Katsuro Tomita, Isao Nakanishi, Kazushi Iwata, Kyoko Yamashita, and Taro Hayakawa: Matrix metalloproteinase 9 (92-kDa gelatinase/type IV collagenase) from HT1080 human fibrosarcoma cells. Purification and activation of the precursor and enzymic properties, J. Biol. Chem., 1992, 267, 21712-21719) in combination with other following methods: 1) Yasunori Okada, Tatsuhisa Morodomi, Jan J, Enghild, Ko Suzuki, Atsushi Yasui, Isao Nakanishi, Guy Salvesen and Hideaki Nagase: Matrix metalloproteinase 2 from human rheumatoid synovial fibroblasts. Purification and activation of the precursor and enzymic properties, Eur. J. Biochem., 1990, 194, 721-730; 2) Robin V Ward, Rosalind M Hembry, John J Reynolds and Gillian Murphy: The purification of tissue inhibitor of metalloproteinase-2 from its 72 kDa progelatinase complex. Biochem. J., 1991, 278, 179-187. In detail, human fibrosarcoma ATCC HT1080 cell line was cultured to confluent in Dulbecco's Modified Medium (DMEM) containing 10% fetal-calf serum at 37° C. for 48 hours. Subsequently, the medium of confluent culture was changed to serum-free DMEM medium. To obtain MMP-9, phorbol-12-myristate-13-acetate (TPA) must be added to this serum-free DMEM medium at a concentration of 50 ng/ml. The TPA-treated medium was centrifuged at 3000 rpm for 15 min, and the supernatant was concentrated to 450 ml by a Toyo-Roshi UP-20 apparatus with an ultrafiltration membrane. Then, proMMP-9 in this concentrated solution was purified by using columns of Gelatin-Sepharose and Concanavalin A-Sepharose. The pool containing proMMP-9 was dialyzed, concentrated (Toyo-Roshi UP-20) and applied to columns of Sephacryl S-200 and Green A matrix for the separation from TIMPs. The obtained proMMP-9 fraction was activated by TPCK-Trypsin (Final conc.: 3 μg/501 React Mix.).
as §1, §2, §3, §4, §5, §6, §7, §8, §9

T4 sequence (P22894 99-262): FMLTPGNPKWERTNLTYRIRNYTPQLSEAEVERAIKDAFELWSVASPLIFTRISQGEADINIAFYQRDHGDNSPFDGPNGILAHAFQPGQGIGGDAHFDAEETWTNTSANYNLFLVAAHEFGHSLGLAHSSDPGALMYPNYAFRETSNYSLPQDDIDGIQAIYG
T2 sequence (P39900 100-263): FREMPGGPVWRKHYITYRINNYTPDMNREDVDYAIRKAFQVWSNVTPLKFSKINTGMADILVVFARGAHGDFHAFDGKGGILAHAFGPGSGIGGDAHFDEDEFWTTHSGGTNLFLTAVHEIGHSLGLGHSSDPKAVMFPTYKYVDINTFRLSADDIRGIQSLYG
MMP-9, sequence (P14780 107-707): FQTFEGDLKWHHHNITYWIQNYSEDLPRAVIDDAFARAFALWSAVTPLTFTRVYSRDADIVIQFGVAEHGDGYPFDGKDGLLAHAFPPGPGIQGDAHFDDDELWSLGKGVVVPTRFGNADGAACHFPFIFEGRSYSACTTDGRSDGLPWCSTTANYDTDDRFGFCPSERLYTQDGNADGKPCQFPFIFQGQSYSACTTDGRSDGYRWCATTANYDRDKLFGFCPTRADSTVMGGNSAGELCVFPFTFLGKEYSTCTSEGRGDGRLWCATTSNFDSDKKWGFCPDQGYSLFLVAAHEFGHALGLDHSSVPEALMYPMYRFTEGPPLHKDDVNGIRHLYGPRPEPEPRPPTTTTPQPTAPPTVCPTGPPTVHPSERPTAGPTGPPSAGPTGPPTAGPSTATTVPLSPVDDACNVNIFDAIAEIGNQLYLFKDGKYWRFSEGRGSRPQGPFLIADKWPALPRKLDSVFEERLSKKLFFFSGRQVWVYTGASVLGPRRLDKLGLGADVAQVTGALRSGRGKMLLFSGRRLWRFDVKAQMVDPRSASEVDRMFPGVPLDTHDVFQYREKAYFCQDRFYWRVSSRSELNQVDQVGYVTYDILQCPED

SMILES | IC50 (MMP-13) | IC50 (MMP-12) | IC50 (MMP-2) | IC50 (MMP-8) | IC50 (MMP-9)
COc1cccc(C(=O)Nc2ccc(-c3ccc(S(=O)(=O)N[C@H](C)C(=O)O)cc3)cc2)c1 [VI-16] | 77.1 nM | 1020 nM | 563 nM | 1100 nM | > 10000 nM
CSCC[C@H](NS(=O)(=O)c1ccc(-c2ccc(C#Cc3ccc4ccccc4c3)cc2)cc1)C(=O)O [III-10] | 2.86 nM | 29.7 nM | 374 nM | 25.9 nM | > 10000 nM
COc1ccc2cc(C#Cc3ccc(-c4ccc(S(=O)(=O)N[C@H](CC(=O)O)C(=O)O)cc4)cc3)ccc2c1 [III-26] | 3.85 nM | > 10000 nM | 5410 nM | 519 nM | > 10000 nM
O=C(Nc1ccc(-c2ccc(S(=O)(=O)N[C@H](Cc3ccccc3)C(=O)O)cc2)cc1)c1ccc2c(c1)OCO2 [VI-12] | 31.1 nM | 334 nM | 197 nM | 1740 nM | > 10000 nM
COc1ccc(C(=O)Nc2ccc(-c3ccc(S(=O)(=O)N[C@H](Cc4ccccc4)C(=O)O)cc3)cc2)cc1 [VI-3] | 32.6 nM | 1100 nM | 239 nM | > 10000 nM | > 10000 nM
CCC(C)[C@H](NS(=O)(=O)c1ccc(-c2ccc(NC(=O)c3ccc4ccccc4c3)cc2)cc1)C(=O)O (stereo partly drawn) [VI-43] | 13.7 nM | 66.9 nM | 243 nM | 63.2 nM | > 10000 nM
Cc1ccc(C(=O)Nc2ccc(-c3ccc(S(=O)(=O)N[C@H](C)C(=O)O)cc3)cc2)cc1 [VI-17] | 35.6 nM | 952 nM | 127 nM | > 10000 nM | > 10000 nM
COc1ccc2cc(C#Cc3ccc(-c4ccc(S(=O)(=O)NC5(C(=O)O)CCCCC5)cc4)cc3)ccc2c1 [III-66] | 42.4 nM |  | > 10000 nM |  | 
C[C@H](NS(=O)(=O)c1ccc(-c2ccc(C#Cc3cccc(C(=O)O)c3)cc2)cc1)C(=O)O [III-61] | 6.17 nM |  | 349 nM |  | 
Cc1c(C(=O)Nc2ccc(-c3ccc(S(=O)(=O)N[C@H](Cc4ccccc4)C(=O)O)cc3)cc2)oc2ccccc12 [VI-46] | 96.5 nM |  | 747 nM |  | 
COc1ccc2cc(C#Cc3ccc(-c4ccc(S(=O)(=O)NC5(C(=O)O)CCCC5)cc4)cc3)ccc2c1 [III-65] | 172 nM |  | > 10000 nM |  | 
COCc1cccc(C#Cc2ccc(-c3ccc(S(=O)(=O)N[C@H](C(=O)O)C(C)C)cc3)cc2)c1 [III-63] | 9.5 nM |  | 144 nM |  | 
COc1ccc2cc(COc3ccc(-c4ccc(S(=O)(=O)N[C@@H](C)C(=O)O)cc4)cc3)ccc2c1 [VII-10] | 16.5 nM |  | > 10000 nM |  | 
O=C(O)[C@H](CO)NS(=O)(=O)c1ccc(-c2ccc(C#Cc3ccc4sccc4c3)cc2)cc1 [III-55] | 10.9 nM |  | 494 nM |  | 
O=C(Nc1ccc(-c2ccc(S(=O)(=O)N[C@@H](Cc3ccccc3)C(=O)O)cc2)cc1)c1cc2ccccc2s1 [VI-48] | 47.3 nM |  | > 10000 nM |  | 
COc1ccc2cc(C#Cc3ccc(-c4ccc(S(=O)(=O)N[C@H](Cc5ccc(O)cc5)C(=O)O)cc4)cc3)ccc2c1 [III-46] | 9.12 nM |  | 57.5 nM |  | 
Cc1nc2cc(C#Cc3ccc(-c4ccc(S(=O)(=O)N[C@@H](C)C(=O)O)cc4)cc3)ccc2s1 [III-54] | 11.3 nM |  | 147 nM |  | 
COCc1cccc(C#Cc2ccc(-c3ccc(S(=O)(=O)N[C@@H](C)C(=O)O)cc3)cc2)c1 [III-62] | 18.9 nM |  | 402 nM |  | 
C[C@@H](NS(=O)(=O)c1ccc(-c2ccc(COc3ccc4ccccc4c3)cc2)cc1)C(=O)O [VII-11] | 16.2 nM |  | > 10000 nM |  | 
CC(C)Oc1cccc(C#Cc2ccc(-c3ccc(S(=O)(=O)N[C@@H](C)C(=O)O)cc3)cc2)c1 [III-60] | 97.8 nM |  | 1170 nM |  | 
COCc1cccc(C#Cc2ccc(-c3ccc(S(=O)(=O)N[C@@H](CC(C)C)C(=O)O)cc3)cc2)c1 [III-64] | 21.1 nM |  | 261 nM |  | 
CC(C)(C)[C@H](NS(=O)(=O)c1ccc(-c2ccc(OCc3ccc4ccccc4c3)cc2)cc1)C(=O)O [VII-8] | 7.93 nM |  | 91 nM |  | 
O=C(O)[C@H](CO)NS(=O)(=O)c1ccc(-c2ccc(C#Cc3ccc4[nH]ccc4c3)cc2)cc1 [III-56] | 6.05 nM |  | 65.7 nM |  | 
CSCC[C@H](NS(=O)(=O)c1ccc(-c2ccc(OCc3ccc4ccccc4c3)cc2)cc1)C(=O)O [VII-9] | 26.5 nM |  | 188 nM |  | 
